Test [1] has as its system MBNL1 and MBNL2 RNA splicing in DM1 myoblasts. The experiment in a line: Splicing assay (RT-PCR) for RNAs from DM1 myoblasts. The format is cell-based, human. Here is the method: A. Total RNA was isolated from normal (SKMC) myoblasts, untreated DM1 myoblasts and DM1 myoblasts treated with 50 μM RCN-001 or 50 μM Pentamidine for 17 hours and subjected to RT-PCR analysis using the indicated primers sets for MBNL1 and MBNL2 RNAs. GAPDH RNA was amplified in parallel as an internal control. The results of one of three experiments are shown. B. The relative levels of exon inclusion was measured by densitometry and tabulated as mean % exon inclusion +/− standard deviation.
Treatment of DM1 myoblasts with RCN-001 is also sufficient to rescue abnormal RNA splicing. Two RNAs were selected that show abnormal splicing in DM1 myoblasts: MBNL1 and MBNL2. DM1 myoblast were treated with 50 μM RCN-001 for 17 hours after which RNA was isolated and splice variants were analyzed as previously described (20-22).
Splicing assays for RNAs isolated from human myoblasts. DM1 patient myoblasts was treated with 50 μM of RCN-001 or Pentamidine for 17 h as described by Warf et al, 2009. Total RNA was isolated using the RNAeasy mini kit (Qiagen Inc., USA) following manufacture's protocol. cDNA was synthesized using 5 μg of total RNA using First-Strand cDNA synthesis kit (GE Healthcare). PCR amplification was carried out using 150 ng of cDNA for 35 cycles for each target RNA. The primers used for PCR amplification are as follows—
The relative band intensities were measured using densitometry analyses and the percent of exon inclusion was calculated as [exon inclusion/(exon inclusion+exon exclusion)]×100.

Test [2] relates to CUG-RNA foci in DM1 myoblasts. The experiment in a line: FISH analysis of nuclear CUG-RNA foci in DM1 myoblasts. It is filed as cell-based, human. The following applies: 2 μM, 4 days (not shown).
Test [3] relates to CUG foci in HSALR mice. Briefly: CUG foci (FISH) in muscle of treated HSALR mice. It is filed as in vivo. To be noted: 40 mg/kg i.p. each day for 7 days. Here is the method:
Red: CUG foci, detected with a (CAG)10Cy3 probe Blue: DAPI stain of nuclei.
(§1) Furthermore, CUG foci, abnormal RNA splicing, myotonia and reduced Clcn1 protein levels are reversed in HSA^LR mice treated with RCN-001: Age and gender matched HSA^LR mice were treated with either vehicle or 40/mgs/kg of RCN-001 injected i.p. each day for 7 days. After treatment CUG foci were examined and RNA isolated from skeletal muscle was subjected to RT-PCR analysis to examine the efficacy of RCN-001 in correcting the splice defects of Clcn1, lbd3 and Serca-1 RNAs, which are abnormally spliced in DM1 (20).
CUG-RNA foci were detected by performing FISH on untreated DM1 myoblasts and DM1 myoblasts following treatment. For FISH analysis, DM1 myoblasts were plated on a 24-well clear bottom polystyrene plate with circular glass coverslips followed by treatment. Prior to FISH analysis, cells were fixed using 4% paraformaldehyde in 1×PBS for 20 min at room temperature. […] CUG-RNA foci were observed as a red signal using fluorescence microscopy. […] Endogenous SHARP was detected using SHARP polyclonal antibodies from Bethyl at a dilution of 1:1000. […] Chloride channel 1 (Clcn1 a.k.a. CIC-1) was detected using CIC-1 polyclonal antibodies from Santa Cruz. […]

The test system of test [4] is HSALR mice. The experiment in a line: Myotonic runs recorded in muscle of treated HSALR mice. The format is in vivo. To be noted: gastrocnemius muscle, 40 mg/kg IP once a day for 14 days, p<0.05 vs vehicle. From the text: For all animals the recording electrode was inserted into the test muscle 20 times. The number of myotonic runs ≧1 second in the gastrocnemius muscle of individual HSA^LR mice treated with either the saline control or RCN-001 are shown.
Importantly, RCN-001 reduces the number of myotonic runs of ≧1 second (p<0.05) (FIG. 5), total time of myotonic runs ≧1 sec (4.04 s±2.9 vehicle; 0.99 s±1.4 RCN-001; p<0.05) and length of the longest run (1.96 s±0.97 vehicle; 0.73 s±0.71 RCN-001; p<0.05) in the gastrocnemius muscle of HSA^LR mice. […] Methods are detailed in the legend of FIG. 5.
Treatment in HSALR mice. The HSALR transgenic mice expressing (CTG)250 in the 3′UTR of the human skeletal actin mRNA as described in Mankodi et al, 2000 were utilized for this study (a generous gift from Dr. Charles Thornton). Treatment in mice was done by intraperitoneal injection using 40 mg/kg once a day for 7 or 14 days of RCN-001 or vehicle alone. Total RNA was isolated from skeletal muscle of treated HSALR mice using Trizole (Invitrogen, USA) following the manufacture's protocol. cDNA synthesis and PCR was performed as described in Dansithong et al, 2008. PCR amplification was carried out with the following primers—

Test [5] has as its system Clcn1, lbd3 and Serca-1 RNA splicing in HSALR mice. Briefly: RT-PCR splicing analysis of skeletal muscle RNA of treated HSALR mice. It is filed as in vivo. To be noted: 40 mg/kg i.p. each day for 7 days.
Text: A. Total RNA was isolated from age and gender matched wild-type mice, HSA^LR mice and HSA^LR mice treated with either saline or 40 mgs/kg of RCN-001 injected i.p. once a day for 7 days. Subsequent to treatment RNA was isolated from skeletal muscles and subjected to RT-PCR analysis using the indicated primers sets for Clcn1, Lbd3 and Serca-1 RNAs. GAPDH RNA was amplified in parallel as an internal control. The results of two experiments are shown. B. Bar graph representation of rescue achieved is shown. C. The relative levels of exon inclusion was measured by densitometry and tabulated as mean % exon inclusion +/− standard deviation.
as §1
Treatment in HSALR mice. […]
The relative band intensities were quantified by densitometry analyses and the percent of exon inclusion was calculated as [exon inclusion/(exon inclusion+exon exclusion)]×100.

The subject of test [6] is normal and DM1 myoblasts. Briefly: Off-target splicing and RNA steady-state levels (semi-quantitative RT-PCR) in myoblasts. The format is cell-based, human. An excerpt: Semi-quantitative RT-PCR was done as previously described (7,17, 23). Abbreviations: U: Untreated; V: vehicle treated; 16: treated with RCN-001.
Results for wild-type and HSA^LR mice are not shown.

Test [7] concerns SHARP. Briefly: SHARP immunofluorescence in DM1 myoblasts. It is filed as cell-based, human. The following applies: RCN-001 treatment for 4 days (not shown). Here is the method:
DM1 myoblasts were then treated with 10 μM of either RCN-001 or the vehicle (DMSO) for 4 days and then examined by FISH using a Cy3 (CAG)10 probe.
CUG-RNA foci were detected by performing FISH on untreated DM1 myoblasts and DM1 myoblasts following treatment. For FISH analysis, DM1 myoblasts were plated on a 24-well clear bottom polystyrene plate with circular glass coverslips followed by treatment. Prior to FISH analysis, cells were fixed using 4% paraformaldehyde in 1×PBS for 20 min at room temperature. FISH analysis was performed using a Cy3 conjugated (CAG)10 oligonucleotide probe (Integrated DNA Technologies, Inc.) as described by Taneja et al, 1995 and Dansithong et al, 2005. CUG-RNA foci were observed as a red signal using fluorescence microscopy. Immunofluorescence was performed as described by Dansithong et al, 2008. Endogenous SHARP was detected using SHARP polyclonal antibodies from Bethyl at a dilution of 1:1000. The secondary antibodies conjugated with FITC (Invitrogen) were used at a 1:2000 dilution. Chloride channel 1 (Clcn1 a.k.a. CIC-1) was detected using CIC-1 polyclonal antibodies from Santa Cruz. The secondary antibodies conjugated with Alexa Flour 488 (Invitrogen) were used at a 1:2000 dilution. FISH analysis in mouse muscle section was carried out as described in Mancodi et al, 2000 (9).

As to `CCCCCCc1cc2cc(-c3nnc(-c4cccc(OC)c4)o3)c(=O)oc2cc1O` [RCN-001], the “rescue of abnormal splicing of MBNL1 and MBNL2” value in test [1] (50 μM, 17 hours, RT-PCR) was “significantly rescues abnormal splicing of MBNL1 and MBNL2”. The “rescue of aberrant splicing of MBNL1, MBNL2, and IR in DM1 myoblasts” value in test [1] (FIG. 6B, semi-quantitative RT-PCR) was “rescues aberrant splicing”. Further, in test [2], the “decrease in cells containing 3 or more foci” value is 2 fold and the “increase in cells containing no foci” value is on record as 5 fold. The “load of the CUG foci” value in test [3] is “reduced”. Moreover, the “number of myotonic runs of ≧1 second” value in test [4] is recorded as “reduces”. Moreover, the “rescue of splice defects of Clcn1, lbd3 and Serca-1 RNAs” value in test [5] is listed as “achieved rescue of splice defects that was comparable to results obtained with AON”. For the same compound, the “off target effects on steady-state levels of endogenous (CUG)6-25 repeat encoding RNAs” value in test [6] (normal and DM1 myoblasts (FIG. 6C)) is “does not show significant off target effects”. Also, the “splice patterns of RNAs that are abnormally spliced in DM1” value in test [6] (normal myoblasts (FIG. 6B)) is recorded as “does not alter splice patterns”. The “splice patterns of RNAs that are normally spliced in DM1” value in test [6] (normal or DM1 myoblasts (FIG. 6A)) is given as “does not alter splice patterns”. Also, the “SHARP mislocalization / nuclear SHARP levels in DM1 myoblast” value in test [7] was “significantly reversed SHARP mislocalization and re-established nuclear SHARP levels”.

The values above are taken from patent US20140121236A1, “Compositions and Methods for Treating Myotonic Dystrophy Type 1” (UNIVERSITY OF SOUTHERN CALIFORNIA, priority 2012, published 2014).
